{"source": "patent US8034314B2", "about": "“Photoreactive compound specifically binding to calcium binding proteins” (priority 2004, dated 2011)", "key": {"[1]": {"biological_target": "T1, Ca2+-pump (SERCA) of skeletal muscle sarcoplasmic reticulum (Oryctolagus cuniculus, UniProt P04191)", "T1 construct": "Sarcoplasmic reticulum (SR) membranes were prepared from rabbit fast twitch skeletal muscle; from tissue; host or cells: rabbit fast twitch skeletal muscle SR membranes", "T1 sequence (P04191 1-994 isoform P04191-2)": "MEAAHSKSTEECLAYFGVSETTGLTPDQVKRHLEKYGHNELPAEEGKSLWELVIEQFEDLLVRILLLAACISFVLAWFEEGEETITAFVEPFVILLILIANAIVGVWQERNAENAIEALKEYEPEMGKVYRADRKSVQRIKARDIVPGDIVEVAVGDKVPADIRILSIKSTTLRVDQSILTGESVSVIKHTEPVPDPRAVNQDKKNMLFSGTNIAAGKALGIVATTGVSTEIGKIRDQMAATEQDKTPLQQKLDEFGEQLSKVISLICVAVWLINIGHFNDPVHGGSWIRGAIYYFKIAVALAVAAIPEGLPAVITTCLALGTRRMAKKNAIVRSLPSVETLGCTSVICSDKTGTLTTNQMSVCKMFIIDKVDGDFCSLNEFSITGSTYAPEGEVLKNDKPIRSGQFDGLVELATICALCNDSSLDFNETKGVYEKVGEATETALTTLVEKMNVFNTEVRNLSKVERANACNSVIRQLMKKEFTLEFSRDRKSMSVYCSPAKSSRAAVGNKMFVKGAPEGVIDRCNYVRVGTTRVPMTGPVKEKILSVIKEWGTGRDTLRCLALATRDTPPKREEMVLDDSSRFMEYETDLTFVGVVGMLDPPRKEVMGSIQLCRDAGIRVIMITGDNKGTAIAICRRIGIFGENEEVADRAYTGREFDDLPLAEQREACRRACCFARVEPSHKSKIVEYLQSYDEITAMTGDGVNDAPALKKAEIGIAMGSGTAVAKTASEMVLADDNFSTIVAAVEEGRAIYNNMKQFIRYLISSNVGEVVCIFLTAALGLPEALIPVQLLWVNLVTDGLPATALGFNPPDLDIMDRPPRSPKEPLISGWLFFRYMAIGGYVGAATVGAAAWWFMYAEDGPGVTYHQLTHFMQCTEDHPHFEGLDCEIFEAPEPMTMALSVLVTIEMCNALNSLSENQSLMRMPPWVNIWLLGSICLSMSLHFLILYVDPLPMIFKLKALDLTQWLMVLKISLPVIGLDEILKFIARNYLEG", "assay": "Ca2+ uptake/accumulation in SR membranes (Ca2+-pump activity)", "type": "biochemical, rabbit", "protocol": "(§1) Sarcoplasmic reticulum (SR) membranes were prepared from rabbit fast twitch skeletal muscle as described by Saito [Saito et al.: J. Cell Biol. 99 (1984) 875-85]. Mitochondria were isolated from rat liver as described by us previously [Gincel D. et al.: Biochem J. 358 (2001) 147-55]. VDAC was purified by a method developed in our laboratory, using columns of hydroxyapatite and reactive red agarose [Gincel D. et al.: J. Bioenerget. Biomembr. 32 (2000) 571-83].\n(§2) Ca^2+-accumulation in freshly prepared mitochondria (0.5 mg/ml) was assayed for 1 to 20 minutes at 30° C. in the presence of 225 mM mannitol, 75 mM sucrose, 120 μM CaCl2 (containing 3×10^4 cpm/nmol ^45Ca^2+), 5 mM HEPES/KOH pH 7.0, and 5 mM succinate with 0.1 mM Pi, or 4 mM MgCl2 with 3 mM ATP. The Ca^2+-uptake was terminated by rapid Millipore filtration, followed by a wash with 5 ml of 0.15 M KCl. The Ca^2+-accumulation in SR was determined as described previously [Shoshan-Barmatz V. & Shaineberg A.: Biochim. Biophys. Acta 1065 (1991) 82-8]. Electron transport from succinate to cytochrome c was described in above cited article [Gincel D. et al.: J. Bioenerget. Biomembr. 32 (2000) 571-83].\nThe preparation of SR membranes from skeletal muscle, and the measurement of Ca^2+-accumulation were carried out as described above.\n(§3) The hexavalent RuR and the trivalent Ru360 have been employed in various studies as inhibitors of Ca^2+-dependent reactions. As shown here, even with no photoactivation, AzRu, in contrast to RuR and Ru360, was effective in inhibiting the SR Ca^2+-pump (Table 3). […] This may open the way to inhibit other Ca^2+-dependent activities that are not sensitive to RuR, such as the plasma membrane Ca^2+-ATPase. […] RuR was employed to improve mitochondrial production in ischemic reperfused pig myocardium, was employed in the nervous system to follow neuronal death progress and can act as an anti-oxidant in certain conditions. Considering the potent activity of AzRu in RuR-insensitive reactions (see Table 3), its applications in various biological studies should be explored. Ca^2+ accumulation in SR and mitochondria was assayed as described above in the absence and presence of different concentrations of RuR (0.05-100 μM), Ru360 (0.01-100 μM) or AzRu (0.1-100 μM). The concentration required for 50% inhibition (IC50) was derived from the plot of Ca^2+ accumulation activity or ryanodine binding as a function of the reagent concentration. The results are the mean±SEM of 3 to 5 experiments (Table 3)."}, "[2]": {"system": "mitochondrial uniporter (Ca2+ uptake in mitochondria)", "assay": "Ca2+ uptake/accumulation in isolated mitochondria", "type": "biochemical, rat", "protocol": "as §1, §2\nThe effect of AzRu on mitochondrial process of electron transport from the donor succinate to the acceptor cytochrome c was characterized as described above. Although said electron transfer involves several dozens electron transfer carriers, this reaction was not affected by azido-ruthenium of this invention.\nas §3"}, "[3]": {"biological_target": "T2, ryanodine receptor (RyR) / Ca2+-release channel (Oryctolagus cuniculus, UniProt P11716)", "T2 construct": "from tissue; host or cells: rabbit fast twitch skeletal muscle SR membranes", "assay": "[3H]ryanodine binding to SR membranes", "set-up": "species or system rabbit", "protocol": "as §1\nFor the determination of [^3H]ryanodine binding, SR membranes were incubated for 20-60 min at 37° C. in a standard binding solution containing 1M NaCl, 20 mM MOPS (pH 7.4), 50 μM free Ca^2+ and 20 nM [^3H]ryanodine. Unbound ryanodine was separated from protein-bound ryanodine by vacuum filtration of the sample through nitrocellulose filters (0.45 μm), followed by two washes with 4 ml ice-cold buffer containing 0.2 M NaCl, 10 mM MOPS (pH 7.4) and 50 μM CaCl2. The retained radioactivity in the dried filters was determined by liquid scintillation counting. Specific binding of [^3H]ryanodine was defined as the difference between the binding in the presence of 20 nM [^3H]ryanodine and in the presence of 20 μM unlabeled ryanodine.\nas §3"}, "VDAC": {"biological_target": "T3, VDAC (Rattus norvegicus, UniProt Q9Z2L0)", "T3 construct": "VDAC was purified by a method developed in our laboratory, using columns of hydroxyapatite and reactive red agarose; from tissue; host or cells: mitochondria", "T3 sequence (Q9Z2L0 whole entry)": "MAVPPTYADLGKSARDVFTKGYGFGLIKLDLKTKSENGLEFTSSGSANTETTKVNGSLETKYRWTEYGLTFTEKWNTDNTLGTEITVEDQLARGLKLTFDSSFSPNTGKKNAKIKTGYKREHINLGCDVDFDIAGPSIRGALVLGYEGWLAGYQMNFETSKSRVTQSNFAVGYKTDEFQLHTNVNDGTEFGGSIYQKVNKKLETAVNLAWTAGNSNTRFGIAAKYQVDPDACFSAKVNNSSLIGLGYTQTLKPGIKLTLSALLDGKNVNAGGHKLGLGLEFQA", "assay": "VDAC channel conductance in planar lipid bilayer", "type": "biochemical", "protocol": "as §1\nReconstitution of purified VDAC into planar lipid bilayer (PLB), single channel current recording, and data analysis were carried out as described in above mentioned publication.\nVDAC is a channel protein which transports Ca^2+ across the mitochondrial outer membrane. […] Purified VDAC was reconstituted into a planar lipid bilayer as multichannels. The channel activity was measured as the ions passed the current across the bilayer in response to a voltage gradient of 10 mV, as a function of time. In the absence of AzRu, VDAC is stable in a long-lived, fully opened state and remains open for up to 2 hours of recording. However, addition of AzRu to the same channel induced VDAC closure, in a time-dependent manner. Ca^2+, in the presence of 1 M NaCl, prevented the inhibitory effect of AzRu on VDAC activity."}, "Peroxidase": {"biological_target": "T4, Peroxidase (Armoracia rusticana, UniProt P00433)", "T4 construct": "purchased Sigma", "T4 sequence (P00433 31-338)": "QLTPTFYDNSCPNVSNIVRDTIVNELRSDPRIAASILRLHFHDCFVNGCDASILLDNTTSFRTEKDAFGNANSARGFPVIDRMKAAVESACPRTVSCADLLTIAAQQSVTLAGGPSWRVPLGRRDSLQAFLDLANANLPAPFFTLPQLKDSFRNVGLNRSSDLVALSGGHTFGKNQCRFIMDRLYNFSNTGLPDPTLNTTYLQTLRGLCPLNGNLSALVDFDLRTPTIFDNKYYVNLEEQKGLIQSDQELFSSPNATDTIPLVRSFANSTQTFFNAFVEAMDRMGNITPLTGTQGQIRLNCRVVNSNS", "assay": "Peroxidase activity", "type": "biochemical, horseradish", "conditions": "AzRu 20 μM; mean ± SEM", "source_text": "(§4) Unlabelled ryanodine was obtained from Calbiochem. […] Ruthenium chloride was purchased from Aldrich."}, "CaMKII-dependent GAPDH": {"system": "CaMKII-dependent GAPDH", "assay": "CaMKII-dependent GAPDH activity", "type": "biochemical", "conditions": "AzRu 20 μM; mean ± SEM"}, "[4]": {"system": "Ca2+-dependent mitochondrial swelling (PTP opening)", "assay": "Ca2+-dependent mitochondrial swelling (PTP opening)", "type": "biochemical, rat", "conditions": "AzRu 20 μM; PTP opening was completely inhibited at this concentration", "protocol": "as §1"}, "Yeast hexokinase": {"system": "Yeast hexokinase", "assay": "Yeast hexokinase activity", "type": "biochemical", "conditions": "mean ± SEM", "source_text": "as §4"}, "Brain hexokinase": {"biological_target": "Brain hexokinase (Homo sapiens, UniProt P19367)", "sequence (P19367 whole entry)": "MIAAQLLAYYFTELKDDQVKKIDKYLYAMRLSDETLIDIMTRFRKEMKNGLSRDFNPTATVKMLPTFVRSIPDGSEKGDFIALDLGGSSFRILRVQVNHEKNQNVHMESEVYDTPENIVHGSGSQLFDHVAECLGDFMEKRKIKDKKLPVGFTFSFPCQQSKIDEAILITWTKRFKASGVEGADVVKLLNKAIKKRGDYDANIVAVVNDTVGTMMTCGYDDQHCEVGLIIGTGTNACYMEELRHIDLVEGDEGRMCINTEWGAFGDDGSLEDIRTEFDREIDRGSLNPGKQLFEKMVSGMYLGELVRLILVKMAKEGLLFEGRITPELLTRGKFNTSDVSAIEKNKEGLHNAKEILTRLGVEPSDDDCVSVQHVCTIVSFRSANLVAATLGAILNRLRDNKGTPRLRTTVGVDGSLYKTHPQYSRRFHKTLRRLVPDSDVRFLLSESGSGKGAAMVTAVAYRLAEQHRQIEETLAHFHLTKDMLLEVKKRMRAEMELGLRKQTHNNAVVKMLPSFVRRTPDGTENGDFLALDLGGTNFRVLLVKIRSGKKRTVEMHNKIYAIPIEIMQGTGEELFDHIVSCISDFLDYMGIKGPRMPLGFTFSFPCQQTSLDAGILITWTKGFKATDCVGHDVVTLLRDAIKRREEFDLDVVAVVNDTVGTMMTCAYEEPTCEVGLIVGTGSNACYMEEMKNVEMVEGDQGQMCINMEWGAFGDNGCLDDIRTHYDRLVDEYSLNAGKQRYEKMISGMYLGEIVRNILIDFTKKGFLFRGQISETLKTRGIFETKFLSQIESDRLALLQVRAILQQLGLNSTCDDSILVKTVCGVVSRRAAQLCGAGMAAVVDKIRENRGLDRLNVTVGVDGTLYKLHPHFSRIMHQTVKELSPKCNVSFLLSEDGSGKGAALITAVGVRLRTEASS", "assay": "Brain hexokinase activity", "type": "biochemical", "conditions": "mean ± SEM"}, "Pyruvate kinase": {"biological_target": "T5, Pyruvate kinase (Oryctolagus cuniculus, UniProt P11974)", "T5 construct": "purchased Sigma", "T5 sequence (P11974 2-531 limits assumed)": "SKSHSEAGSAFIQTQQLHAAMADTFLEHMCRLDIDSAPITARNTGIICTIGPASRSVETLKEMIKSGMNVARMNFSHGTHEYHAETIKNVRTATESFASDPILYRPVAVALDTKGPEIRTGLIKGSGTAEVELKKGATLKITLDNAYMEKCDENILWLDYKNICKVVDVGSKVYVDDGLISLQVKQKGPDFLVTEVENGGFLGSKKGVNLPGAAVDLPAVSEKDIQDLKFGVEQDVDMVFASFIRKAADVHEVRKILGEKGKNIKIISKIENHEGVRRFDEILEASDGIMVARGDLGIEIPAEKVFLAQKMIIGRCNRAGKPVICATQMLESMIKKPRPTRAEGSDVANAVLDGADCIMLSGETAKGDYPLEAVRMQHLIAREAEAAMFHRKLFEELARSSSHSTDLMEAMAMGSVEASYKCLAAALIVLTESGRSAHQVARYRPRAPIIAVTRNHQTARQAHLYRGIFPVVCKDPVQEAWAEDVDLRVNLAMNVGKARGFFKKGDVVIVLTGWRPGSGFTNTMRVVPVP", "assay": "Pyruvate kinase activity", "type": "biochemical", "conditions": "AzRu 20 μM; mean ± SEM", "source_text": "as §4"}, "[5]": {"conditions": "+UV (photoactivation), mean ± SEM"}, "[6]": {"conditions": "no UV, mean ± SEM of 3 to 5 experiments"}}}
{"substance": "azido-ruthenium [AzRu]", "values": [{"measurement": "IC50", "setting": "[1]; [5]", "result": "1010 ± 95", "unit": "nM"}, {"measurement": "Activity (% of control), Ca2+ uptake in SR (SERCA)", "setting": "[1]; AzRu 20 μM, mean ± SEM of 3 to 6 experiments", "result": "13 ± 6 % of control"}, {"measurement": "Change of sensitivity of the Ca2+-pump activity to the reagent by photoactivation", "setting": "[1]; UV irradiation, SR membranes", "result": "increased more than two-fold"}, {"measurement": "IC50", "setting": "[1]; no photoactivation, mean ± SEM of 3 to 5 experiments", "result": "4910 ± 55", "unit": "nM"}, {"measurement": "Activity (% of control), Ca2+ uptake in mitochondria", "setting": "[2]; AzRu 20 μM, mean ± SEM", "result": "11 ± 4 % of control"}, {"measurement": "Effect on Ca2+ transport in mitochondria", "setting": "[2]; isolated mitochondria, FIG. 7", "result": "inhibited"}, {"measurement": "IC50", "setting": "[2]; [6]", "result": "1780 ± 120", "unit": "nM"}, {"measurement": "IC50", "setting": "[3]; [5]", "result": "1210 ± 60", "unit": "nM"}, {"measurement": "Activity (% of control), Ryanodine binding by SR RyR", "setting": "[3]; AzRu 20 μM, mean ± SEM", "result": "18 ± 6 % of control"}, {"measurement": "Effect on binding of ryanodine to SR membranes", "setting": "[3]; FIG. 8", "result": "strongly inhibited"}, {"measurement": "IC50", "setting": "[3]; [6]", "result": "2900 ± 170", "unit": "nM"}, {"measurement": "Activity (% of control), VDAC conductance", "setting": "VDAC; AzRu 20 μM, mean ± SEM", "result": "19 ± 5 % of control"}, {"measurement": "Effect on VDAC conductance in multi-channel experiments", "setting": "VDAC; all voltages tested", "result": "decreased VDAC conductance"}, {"measurement": "Effect on VDAC channel activity", "setting": "VDAC; purified VDAC in planar lipid bilayer, voltage gradient 10 mV", "result": "inhibited the channel activity of VDAC"}, {"measurement": "Activity (% of control), Peroxidase", "setting": "Peroxidase", "result": "39 ± 4 % of control"}, {"measurement": "Activity (% of control), CaMKII-dependent GAPDH", "setting": "CaMKII-dependent GAPDH", "result": "6 ± 2 % of control"}, {"measurement": "Activity (% of control), Ca2+-dependent mitochondrial swelling", "setting": "[4]", "result": "0 % of control"}, {"measurement": "Activity (% of control), Yeast hexokinase", "setting": "Yeast hexokinase; AzRu 20 μM", "result": "77 ± 5 % of control"}, {"measurement": "Activity (% of control), Yeast hexokinase", "setting": "Yeast hexokinase; AzRu 100 μM", "result": "64 ± 4 % of control"}, {"measurement": "Activity (% of control), Brain hexokinase", "setting": "Brain hexokinase; AzRu 20 μM", "result": "73 ± 7 % of control"}, {"measurement": "Activity (% of control), Brain hexokinase", "setting": "Brain hexokinase; AzRu 100 μM", "result": "61 ± 3 % of control"}, {"measurement": "Activity (% of control), Pyruvate kinase", "setting": "Pyruvate kinase", "result": "97 ± 7 % of control"}]}
